Experimental data: patent US20250109118A1, “HETEROCYCLIC COMPOUNDS AS SHP2 INHIBITORS, COMPOSITIONS COMPRISING THE HETEROCYCLIC COMPOUND, AND METHODS OF USE THEREOF” (JS INNOMED HOLDINGS LTD., priority 2021, published 2025)

Experiments:
SHP2 (PTPN11/SHP2-FL) = molecular target: T1, SHP2 (PTPN11/SHP2-FL) (Homo sapiens, UniProt Q06124); test: SHP2 biochemical assay (DiFMUP prompt fluorescence); details: 0.5 nM SHP2, 0.35 μM activating peptide, DiFMUP 100 μM; read-out: SHP2 bichemical activity (IC50)
T1 construct: SHP2 (PTPN11/SHP2-FL, RBC produced, no cat #); purchased RBC no cat #
T1 sequence (Q06124 1-593): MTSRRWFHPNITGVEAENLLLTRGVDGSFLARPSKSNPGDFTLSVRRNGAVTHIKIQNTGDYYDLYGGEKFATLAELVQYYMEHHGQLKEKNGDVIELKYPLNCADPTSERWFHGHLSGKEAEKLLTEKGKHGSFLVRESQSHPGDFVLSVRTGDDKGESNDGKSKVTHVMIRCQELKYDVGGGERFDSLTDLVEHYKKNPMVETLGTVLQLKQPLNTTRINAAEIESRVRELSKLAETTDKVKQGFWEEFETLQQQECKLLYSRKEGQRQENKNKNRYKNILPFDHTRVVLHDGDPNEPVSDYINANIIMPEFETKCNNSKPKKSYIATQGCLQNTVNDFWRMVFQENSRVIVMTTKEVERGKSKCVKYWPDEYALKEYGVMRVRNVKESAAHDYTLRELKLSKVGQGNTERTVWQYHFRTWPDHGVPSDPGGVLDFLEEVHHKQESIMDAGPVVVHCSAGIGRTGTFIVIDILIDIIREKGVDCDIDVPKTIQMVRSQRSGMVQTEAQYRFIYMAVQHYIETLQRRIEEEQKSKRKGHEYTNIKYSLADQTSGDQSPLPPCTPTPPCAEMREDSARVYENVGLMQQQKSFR
Procedure: SHP2 is allosterically activated through binding of bis-tyro syiphorphorylated peptides to its Src Homology 2 (SH2) domains. The latter activation step leads to the release of the auto-inhibitory interface of SHP2, which in turn renders the SHP2 PTP active and available for substrate recognition and reaction catalysis. The catalytic activity of SHP2 was monitored using the surrogate substrate DiFMUP in a prompt fluorescence assay format. Specifically, the phosphatase reactions were performed at room temperature in 384-well black polystyrene plate, flat bottom, low flange, non-binding surface (Corning, Cat #3575) using a final reaction volume of 20 μL and the following assay buffer conditions: 60 mM HEPES, pH 7.2, 75 mM NaCl, 75 mM KCl, 1 mM EDTA, 0.01% Brij-35, 5 mM DTT, and 10% DMSO (final). The inhibition of SHP2 from the tested compounds (final concentrations varying from 0.003-100 μM) was monitored using an assay in which 0.5 nM of SHP2 (PTPN11/SHP2-FL, RBC produced, no cat #) was incubated with 0.35 μM of the peptide H2NLN(pY)IDLDLV(dPEG8)LST(pY)ASINFQK-amide. After 20 minutes of incubation at room temperature, the surrogate substrate DiFMUP (6,8-difluoro-7-hydroxy-4-methylcoumarin, Invitrogen, cat #D6567, 100 μM final concentration) was added to the reaction. The fluorescence signal was monitored using a microplate reader (Envision, Perkin-Elmer) using excitation and emission wavelengths of 355 nm and 460 nm, respectively. The inhibitor dose response curves were analyzed using normalized IC50 regression curve fitting with control based normalization.
The IC50 values of for Compounds disclosed are listed in Table 2, A: ≤10 nM; B: >10 nM and ≤100 nM; C: >100 nM and ≤1 uM; and D: >1 μM.

MiaPaCa-2 cells = test: MiaPaCa-2 Cell proliferation assay in 3D culture (CCK8); assay type: cell-based; details: Homo sapiens, MIA PaCa-2, 120 h; 3D spheroid culture, 5 days with compound, CCK8 readout
How it was run: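 Cells grown as spheroids (2500/well, ultra-low attachment, 10% FBS) for 24 h, then exposed 5 days to ten 3-fold compound dilutions at 0.1% DMSO. Viability by CCK8/WST-8, 1.5 h at 37 °C, absorbance 450 nm; IC50 from triplicates.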

Structure (SMILES) | IC50 (SHP2 (PTPN11/SHP2-FL)) [nM] | IC50 (MiaPaCa-2 cells) [nM]
CC1(CN)CCN(c2cnc(Sc3cccc(C(=O)NS(=O)(=O)c4ccccn4)c3Cl)c(N)n2)CC1 [Example 35, 3-((3-amino-5-(4-(aminomethyl)-4-methylpiperidin-1-yl)pyrazin-2-yl)thio)-2-chloro-N-(pyridin-2-ylsulfonyl)benzamide] | ≤ 10 | ≤ 500
CC1(CN)CCN(c2cnc(Sc3cccc(NC(=O)NS(C)(=O)=O)c3Cl)c(N)n2)CC1 [Example 40, N-((3-((3-amino-5-(4-(aminomethyl)-4-methylpiperidin-1-yl)pyrazin-2-yl)thio)-2-chlorophenyl)carbamoyl)methanesulfonamide] | ≤ 10 | ≤ 500
CC1(CN)CCN(c2cnc(Sc3cccc(C(=O)NS(=O)(=O)c4cccnc4)c3Cl)cn2)CC1 [Example 24, 3-((5-(4-(aminomethyl)-4-methylpiperidin-1-yl)pyrazin-2-yl)thio)-2-chloro-N-(pyridin-3-ylsulfonyl)benzamide] | ≤ 10 | 500 to 5000
CC1(CN)CCN(c2cnc(Sc3cccc(NC(=O)NS(=O)(=O)C4CC4)c3Cl)c(N)n2)CC1 [Example 43, N-((3-((3-amino-5-(4-(aminomethyl)-4-methylpiperidin-1-yl)pyrazin-2-yl)thio)-2-chlorophenyl)carbamoyl)cyclopropanesulfonamide] | ≤ 10 | ≤ 500
CC1(CN)CCN(c2cnc(Sc3cccc(C(=O)NS(=O)(=O)C4CCCCC4)c3Cl)cn2)CC1 [Example 27, 3-((5-(4-(aminomethyl)-4-methylpiperidin-1-yl)pyrazin-2-yl)thio)-2-chloro-N-(cyclohexylsulfonyl)benzamide] | ≤ 10 | ≤ 500
CC1(N)CCN(c2cnc(Sc3cccc(S(=O)(=O)NC(=O)c4ccccc4)c3Cl)cn2)CC1 [Example 33, N-((3-((5-(4-amino-4-methylpiperidin-1-yl)pyrazin-2-yl)thio)-2-chlorophenyl)sulfonyl)benzamide] | 10 to 100 | ≤ 500
CC1(CN)CCN(c2cnc(Sc3cccc(NC(=O)NS(C)(=O)=O)c3Cl)cn2)CC1 [Example 29, N-((3-((5-(4-(aminomethyl)-4-methylpiperidin-1-yl)pyrazin-2-yl)thio)-2-chlorophenyl)carbamoyl)methanesulfonamide] | ≤ 10 | ≤ 500
CC1(CN)CCN(c2cnc(Sc3cccc(C(=O)NS(=O)(=O)c4ccccc4F)c3Cl)c(N)n2)CC1 [Example 34, 3-((3-amino-5-(4-(aminomethyl)-4-methylpiperidin-1-yl)pyrazin-2-yl)thio)-2-chloro-N-((2-fluorophenyl)sulfonyl)benzamide] | ≤ 10 | 500 to 5000
CC1(CN)CCN(c2cnc(Sc3cccc(C(=O)NS(=O)(=O)c4ccccc4)c3Cl)c(N)n2)CC1 [Example 5, 3-((3-amino-5-(4-(aminomethyl)-4-methylpiperidin-1-yl)pyrazin-2-yl)thio)-2-chloro-N-(phenylsulfonyl)benzamide] | ≤ 10 | ≤ 500
CC1(CN)CCN(c2cnc(Sc3cccc(C(=O)NS(C)(=O)=O)c3Cl)cn2)CC1 [Example 26, 3-((5-(4-(aminomethyl)-4-methylpiperidin-1-yl)pyrazin-2-yl)thio)-2-chloro-N-(methylsulfonyl)benzamide] | ≤ 10 | ≤ 500
CC1(CN)CCN(c2cnc(Sc3cccc(NC(=O)NS(=O)(=O)C4CC4)c3Cl)cn2)CC1 [Example 32, N-((3-((5-(4-(aminomethyl)-4-methylpiperidin-1-yl)pyrazin-2-yl)thio)-2-chlorophenyl)carbamoyl)cyclopropanesulfonamide] | ≤ 10 | ≤ 500
CC1(N)CCN(c2cnc(Sc3cccc(C(=O)NS(=O)(=O)c4ccccc4)c3Cl)cn2)CC1 [Example 3, 3-((5-(4-amino-4-methylpiperidin-1-yl)pyrazin-2-yl)thio)-2-chloro-N-(phenylsulfonyl)benzamide] | ≤ 10 | 500 to 5000
Nc1nc(N2CCC3(CC2)COC[C@H]3N)cnc1Sc1cccc(C(=O)NS(=O)(=O)c2ccccc2)c1Cl [Example 31, (S)-3-((3-amino-5-(4-amino-2-oxa-8-azaspiro[4.5]decan-8-yl)pyrazin-2-yl)thio)-2-chloro-N-(phenylsulfonyl)benzamide] | ≤ 10 | ≤ 500
CC1(CN)CCN(c2cnc(Sc3cccc(C(=O)NS(=O)(=O)C4CC4)c3Cl)c(N)n2)CC1 [Example 36, 3-((3-amino-5-(4-(aminomethyl)-4-methylpiperidin-1-yl)pyrazin-2-yl)thio)-2-chloro-N-(cyclopropylsulfonyl)benzamide] | 10 to 100 | 500 to 5000
CC1(N)CCN(c2cnc(Sc3cccc(C(=O)NS(=O)(=O)C4CCCCC4)c3Cl)cn2)CC1 [Example 20, 3-((5-(4-amino-4-methylpiperidin-1-yl)pyrazin-2-yl)thio)-2-chloro-N-(cyclohexylsulfonyl)benzamide] | 10 to 100 | 5000 to 50000
